From patent US20250215029A1 (Recludix Pharma, Inc., priority 2022, published 2025)
pIC50: −log10 of the molar value.

biological target: T1, pY641-STAT6 in PBMC (Homo sapiens, UniProt P42226); assay: MSD-pSTAT-PBMC Assay (pSTAT6, IL-4 stimulated); type: cell-based; conditions: STAT6, PBMC, compound 3 hrs, then 1 ng/mL IL-4 for 10 min; Table 115
T1 construct: Cryopreserved Peripheral Blood Mononuclear Cells (PBMC) are from AllCells; host or cells: cryopreserved PBMC
T1 sequence (P42226 1-847): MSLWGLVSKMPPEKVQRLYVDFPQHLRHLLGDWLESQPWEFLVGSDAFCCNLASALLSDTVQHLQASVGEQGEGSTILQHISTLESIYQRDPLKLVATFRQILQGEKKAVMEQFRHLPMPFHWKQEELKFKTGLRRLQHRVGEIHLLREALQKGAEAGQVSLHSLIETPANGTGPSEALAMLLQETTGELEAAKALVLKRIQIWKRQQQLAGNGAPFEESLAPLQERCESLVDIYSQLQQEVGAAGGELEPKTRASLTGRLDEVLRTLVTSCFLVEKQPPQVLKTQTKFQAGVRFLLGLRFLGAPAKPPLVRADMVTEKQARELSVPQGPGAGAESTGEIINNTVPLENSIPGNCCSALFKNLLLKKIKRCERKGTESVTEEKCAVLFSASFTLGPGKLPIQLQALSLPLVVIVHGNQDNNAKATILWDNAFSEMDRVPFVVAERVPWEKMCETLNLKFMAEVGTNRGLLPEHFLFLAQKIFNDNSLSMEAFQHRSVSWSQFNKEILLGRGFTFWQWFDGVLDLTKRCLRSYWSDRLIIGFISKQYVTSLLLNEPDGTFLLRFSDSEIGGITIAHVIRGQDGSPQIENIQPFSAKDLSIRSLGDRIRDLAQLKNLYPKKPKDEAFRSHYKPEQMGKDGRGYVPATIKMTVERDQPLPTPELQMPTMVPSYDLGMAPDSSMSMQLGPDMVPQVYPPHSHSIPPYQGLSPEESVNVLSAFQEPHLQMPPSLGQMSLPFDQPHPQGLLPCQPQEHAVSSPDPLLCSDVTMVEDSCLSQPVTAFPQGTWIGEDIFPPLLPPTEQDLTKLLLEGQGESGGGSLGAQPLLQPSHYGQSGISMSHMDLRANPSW
Outline: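 MSD electrochemiluminescence read-out: total STAT captured, probed with anti-pY641-STAT6 or anti-pY705-STAT3. Human PBMC, 3 h compound pretreatment, 10 min stimulation (IL-4 1 ng/mL or IL-6 10 ng/mL). Unstimulated signal subtracted, DMSO-normalized, variable-slope IC50.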

First: CCCOC(=O)[C@H](C)NP(=O)(Oc1ccccc1)C(F)c1ccc2sc(C(=O)N[C@H]3CCCC[C@H]4CC[C@@H](C(=O)N5CC(c6ccn(C)c(=O)c6)CC56CC6)N4C3=O)cc2c1 (stereo partly drawn) [Compound 449, propyl ((fluoro(2-(((3S,6S,10aS)-3-(6-(1-methyl-2-oxo-1,2-dihydropyridin-4-yl)-4-azaspiro[2.4]heptane-4-carbonyl)-5-oxodecahydropyrrolo [1,2-a]azocin-6-yl)carbamoyl)benzo [b]thiophen-5-yl)methyl)(phenoxy)phosphoryl)-L-alaninate]
Second: CCCOC(=O)[C@H](C)NP(=O)(Oc1ccccc1)[C@@H](F)c1ccc2sc(C(=O)N[C@H]3CCC[C@H]4CC[C@@H](C(=O)N5C[C@@H](c6cccnc6)CC56CC6)N4C3=O)cc2c1 (stereo partly drawn) [Compound 379, propyl (((R)-fluoro(2-(((3S,6S,9aS)-5-oxo-3-((R)-6-(pyridin-3-yl)-4-azaspiro[2.4]heptane-4-carbonyl)octahydro-1H-pyrrolo[1,2-a]azepin-6-yl)carbamoyl)benzo [b]thiophen-5-yl)methyl)(phenoxy)phosphoryl)-L-alaninate]
The pIC50 of the first is lower: 6.00 to 7.00 for the first, greater than 7.00 for the second.

First: CCCOC(=O)[C@H](C)NP(=O)(Oc1ccccc1)C(F)c1ccc2sc(C(=O)N[C@H]3CCCC[C@H]4CC[C@@H](C(=O)N5C(=O)N(c6cccnc6)C(=O)C5(C)C)N4C3=O)cc2c1 (stereo partly drawn) [Compound 989, propyl (((2-(((3S,6S,10aS)-3-(5,5-dimethyl-2,4-dioxo-3-(pyridin-3-yl)imidazolidine-1-carbonyl)-5-oxodecahydropyrrolo [1,2-a]azocin-6-yl)carbamoyl)benzo [b]thiophen-5-yl)fluoromethyl) (phenoxy)phosphoryl)-L-alaninate]
Second: CCCOC(=O)[C@H](C)NP(=O)(Oc1ccccc1)[C@@H](F)c1ccc2sc(C(=O)N[C@H]3CCCC[C@H]4CC[C@@H](C(=O)N5C(=O)N(c6cncc(OC)c6)C(=O)C56CC6)N4C3=O)cc2c1 (stereo partly drawn) [Compound 331, propyl (((R)-fluoro(2-(((3S,6S,10aS)-3-(6-(5-methoxypyridin-3-yl)-5,7-dioxo-4,6-diazaspiro[2.4]heptane-4-carbonyl)-5-oxodecahydropyrrolo [1,2-a]azocin-6-yl)carbamoyl)benzo [b]thiophen-5-yl)methyl)(phenoxy)phosphoryl)-L-alaninate]
The pIC50 of the first is lower: less than 5.52 for the first, 5.52 to 6.00 for the second. The second is the more potent here.

`CCCOC(=O)[C@H](C)NP(=O)(Oc1ccccc1)C(F)c1ccc2sc(C(=O)N[C@H]3CCCC[C@H]4CC[C@@H](C(=O)N5CCC(O)(c6ccn(C)c(=O)c6)C5)N4C3=O)cc2c1` (stereo partly drawn) [Compound 466, propyl ((fluoro(2-(((3S,6S,10aS)-3-(3-hydroxy-3-(1-methyl-2-oxo-1,2-dihydropyridin-4-yl)pyrrolidine-1-carbonyl)-5-oxodecahydropyrrolo [1,2-a]azocin-6-yl)carbamoyl)benzo [b]thiophen-5-yl)methyl)(phenoxy)phosphoryl)-L-alaninate] and `CCCOC(=O)[C@H](C)NP(=O)(Oc1ccccc1)[C@@H](F)c1ccc2sc(C(=O)N[C@H]3CCCC[C@H]4CC[C@@H](C(=O)N5C(=O)N(c6ccc(C(F)F)nc6)C(=O)C56CC6)N4C3=O)cc2c1` (stereo partly drawn) [Compound 332, propyl (((R)-(2-(((3S,6S,10aS)-3-(6-(6-(difluoromethyl)pyridin-3-yl)-5,7-dioxo-4,6-diazaspiro[2.4]heptane-4-carbonyl)-5-oxodecahydropyrrolo [1,2-a]azocin-6-yl)carbamoyl)benzo [b]thiophen-5-yl)fluoromethyl) (phenoxy)phosphoryl)-L-alaninate] cannot be ordered by pIC50: less than 5.52 for the first, less than 5.52 for the second.

Compound `CCCOC(=O)[C@H](C)NP(=O)(Oc1cccc(OCCOC)c1)[C@@H](F)c1ccc2sc(C(=O)N[C@H]3CCC[C@H]4CC[C@@H](C(=O)N5C[C@@H](c6cccnc6)CC56CC6)N4C3=O)cc2c1` (stereo partly drawn) [Compound 357, propyl (((R)-fluoro(2-(((3S,6S,9aS)-5-oxo-3-((R)-6-(pyridin-3-yl)-4-azaspiro[2.4]heptane-4-carbonyl)octahydro-1H-pyrrolo[1,2-a]azepin-6-yl)carbamoyl)benzo [b]thiophen-5-yl)methyl)(3-(2-methoxyethoxy)phenoxy)phosphoryl)-L-alaninate] has a pIC50 greater than 7.00.
